Bounds are passed on as bounds.

The test system of one data set is HCT-116. The data set can be described thus: Cell-Titer Glo Cell Growth Inhibition Assay, HCT116. The following applies: Homo sapiens, CellTiter-Glo, 72 h, read-out: CTG HCT116 IC50. The class given is cell-based. How it is done: (§1) A549-L (human lung), BT474 (human breast), Colo 205 (human colon), H1299 (human lung), Hela (human cervix), HCT-116 (human colon), HN5 (human head and neck), HT29 (human colon), LNCap (human prostate), MCF7 (human breast), MDA-MB468 (human breast), MX-1 (human breast), RPMI 8226 (human peripheral blood), SKOV3 (human ovary) and P388 (murine leukemia) cell lines were cultured in RPMI1640 containing 10% fetal bovine serum at 37° C. in a 5% CO2 incubator. Cell lines were split into T75 flasks (Falcon #353136) two to three days prior to assay set up at density which yields approximately 70-80% confluency at time of harvest for assay. Cells were harvested using 0.25% trypsin with EDTA (Glibco/Invitrogen #25200-056), Cell counts were performed on cell suspensions using Trypan Blue exclusion staining, cells were then plated in 105 uL of culture media per well at the following densities in 96 well Costar #3916 black flat bottom plates: All human cell lines were plated at 500 cells/well. P388 were plated at 250 cells/well. All plates were placed at 5% CO2 37° C. overnight and then test compounds were added the following day. One plate of each cell type is treated with CellTiter-Glo (Promega #G7573) for a day 0 proliferation measurement and read as described below. The test compounds are prepared in clear U bottom polypropylene 96 well plates (Falcon #35-1190 with consecutive two fold dilutions. 9 uL of these dilutions was added into each well of the cell plates. The final concentration of DMSO in all wells is 0.15%. Cells were incubated at 37° C., 5% CO2 for 72 h. Following 72 h of incubation with compounds each plate was developed and read. CellTiter-Glo reagent was added to assay plates using a volume equivalent to the cell culture volume in the wells. Plates were shaken for approximately two minutes and incubated at room temperature for approximately 15 min and the chemiluminescent signal is read on the Victor V or Envison 2100 reader. […] Concentration of compound that inhibited 50% of cell growth (IC50) was analysis by 4 or 6 parameter fit of data using XLfit, value of no cell addition was subtracted from all samples for background.
A general note: ATP-based viability assays read luminescence as a measure of living cells.

A further data set concerns P388. The experiment in a line: Cell-Titer Glo Cell Growth Inhibition Assay, P388. The note with it: Mus musculus, CellTiter-Glo, 72 h, read-out: CTG P388 IC50. The data set is classed as cell-based, murine. The method, then: as §1
Another data set has as its system SKOV3. The experiment in a line: Cell-Titer Glo Cell Growth Inhibition Assay, SKOV-3. The class given is cell-based. The note with it: Homo sapiens, SK-OV-3, CellTiter-Glo, 72 h, read-out: CTG SKOV-3 IC50. The method, then: as §1
The test system of another data set is Colo 205. The data set can be described thus: Cell-Titer Glo Cell Growth Inhibition Assay, COLO205. The class given is cell-based. The note with it: Homo sapiens, CellTiter-Glo, 72 h, read-out: CTG COLO205 IC50. How it is done:
as §1

A short description of data set [1]: Intravenous pharmacokinetics in CD-1 mouse. The data set is classed as in vivo. The note with it: plasma, iv bolus, male CD-1 mouse, dose 1.9-7.4 mg/kg per compound (Table 3); for clearance: read-out: Plasma CL. How it is done:
Preliminary investigation of the intravenous pharmacokinetics of compounds of invention were carried out in fed conscious CD-1 mouse. Compounds were formulated as 1-10 mg/kg, 5 mL/kg, 1-2 mg/mL solution (Table 3). Twenty one male mice (n=3 mice per time point) (˜30 g) received dose solution by bolus injection in the tail vein. The formulation for iv were either 20% beta cyclodextrin in saline pH 3.5-6 or PEG400:ethanol:saline (50:15:35 v/v). Blood samples (˜0.4 mL) were collected terminally by cardiac puncture following anesthetization in a CO2 chamber at 2, 15, 30, 60 min, 2, 4, and 6 h following iv administration. Blood samples were collected into tubes containing heparin and placed on crushed ice promptly after collection. Plasma was collected by centrifugation, frozen and stored at about −80° C. prior to analysis. Blood or plasma concentrations were determined by LC/MS/MS equipped with an electrospray ion source and using calibration curves for the appropriate matrix. The lower level of quantitation (LLQ) was 10 ng/mL. Blood or plasma concentration-time data were analyzed by non-compartmental methods using the computer program WinNonlin Professional (version 4.1). Area under the blood or plasma concentration-time curve (AUC) was calculated using the linear trapezoidal rule for each incremental trapezoid up to Cmax, and the log trapezoidal rule for each trapezoid thereafter. The terminal elimination rate constant (λz) was derived from the log-linear disposition phase of the concentration-time curve using least-squares regression analysis with visual inspection of the data to determine the appropriate number of terminal data points for regression analysis.
Following iv administration, the total body clearance (CL) was estimated. CL was calculated by dividing the dose by AUC(0−t). The clearance values were assigned as follows. Low <30 mL/min/kg, moderate 30-70 mL/min/kg, high >70 mL/min/kg. The assignment was based on hepatic blood flow i.e. hepatic blood flow of 0-30% low, 30-70% moderate and 70-100% high. The hepatic blood flow in mouse is ˜100 mL/min/kg.

The subject of a further data set is A549-L. The data set can be described thus: Cell-Titer Glo Cell Growth Inhibition Assay, A549-L. The following applies: Homo sapiens, CellTiter-Glo, 72 h, read-out: CTG A549-L IC50. The class given is cell-based. The method, then:
as §1

The next data set deals with MX-1. The experiment in a line: Cell-Titer Glo Cell Growth Inhibition Assay, MX-1. The following applies: Homo sapiens, MX1, CellTiter-Glo, 72 h, read-out: CTG MX-1 IC50. The class given is cell-based. How it is done:
as §1

For the next data set, the system named is HT29. The data set can be described thus: Cell-Titer Glo Cell Growth Inhibition Assay, HT29. The data set is classed as cell-based. The following applies: Homo sapiens, HT-29, CellTiter-Glo, 72 h, read-out: CTG HT29 IC50. The method, then: as §1
The target in another data set is T1, PLK1 kinase domain (Homo sapiens, UniProt P53350).
T1 construct: made in house; host or cells: baculovirus infected T. ni cells
T1 sequence (P53350 21-346): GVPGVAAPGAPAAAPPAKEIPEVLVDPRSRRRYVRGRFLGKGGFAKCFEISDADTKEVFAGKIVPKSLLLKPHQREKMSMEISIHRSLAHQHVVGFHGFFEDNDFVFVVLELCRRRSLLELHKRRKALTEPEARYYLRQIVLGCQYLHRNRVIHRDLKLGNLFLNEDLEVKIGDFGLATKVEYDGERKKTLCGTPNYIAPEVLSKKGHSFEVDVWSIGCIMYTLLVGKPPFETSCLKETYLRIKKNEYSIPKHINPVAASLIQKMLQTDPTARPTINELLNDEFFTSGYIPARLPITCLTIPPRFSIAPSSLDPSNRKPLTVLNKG
The data set can be described thus: Assay for Inhibition of PLK1 (33P SPA kinase assay). The data set is classed as biochemical. The note with it: 2 nM PLK1 kinase domain, 1 μM ATP; read-out: PLK1 pIC50 (converted). How it is done: All procedures were performed at 4° C. Cells were lysed in 50 mM HEPES, 200 mM NaCl, 50 mM imidazole, 5% glycerol; pH 7.5. The homogenate was centrifuged at 14K rpm in a SLA-1500 rotor for 1 h and the supernatant filtered through a 1.2 micron filter. The supernatant was loaded onto a Nickel chelating Sepharose (Amersham Pharmacia) column and washed with lysis buffer. Protein was eluted using 20%, 30% and 100% buffer B steps where buffer B is 50 mM HEPES, 200 mM NaCl, 300 mM imidazole, 5% glycerol; pH 7.5. Fractions containing PLK were determined by SDS-PAGE. Fractions containing PLK were diluted five-fold with 50 mM HEPES, 1 mM DTT, 5% glycerol; pH 7.5, then loaded on an SP Sepharose (Amersham Pharmacia) column. After washing the column with 50 mM HEPES, 1 mM DTT, 5% glycerol; pH 7.5, PLK was step eluted with 50 mM HEPES, 1 mM DTT, 500 mM NaCl; 5% glycerol; pH 7.5. PLK was concentrated using a 10 kDa molecular weight cutoff membrane and then loaded onto a Superdex 200 gel filtration (Amersham Pharmacia) column equilibrated in 25 mM HEPES, 1 mM DTT, 500 mM NaCl, 5% glycerol; pH 7.5. Fractions containing PLK were determined by SDS-PAGE. PLK was pooled, aliquoted and stored at −80° C. Samples were quality controlled using mass spectrometry, N-terminal sequencing and amino acid analysis.
B. Enzyme activity +/− inhibitors was determined as follows:
All measurements were obtained under conditions where signal production increased linearly with time and enzyme. Test compounds were added to white 384-well assay plates (0.1 μL for 10 μL and some 20 μl assays, 1 μL for some 20 μL assays) at variable known concentrations in 100% DMSO. DMSO (1-5% final, as appropriate) and EDTA (65 mM in reaction) were used as controls.
Reaction Mix (10 or 20 μL) was quickly added to each well immediately following addition of enzyme via automated liquid handlers and incubated 1-1.5 h at 22° C. The 20 μL enzymatic reactions were stopped with 50 μL of stop mix (50 mM EDTA, 4.0 mg/mL Streptavidin SPA beads in Standard Dulbecco's PBS (without Mg^2+ and Ca^2+), 50 μM ATP) per well. The 10 μL reactions were stopped with 10 μL of stop mix (50 mM EDTA, 3.0 mg/mL Streptavidin-coupled SPA Imaging Beads (“LeadSeeker”) in Standard Dulbecco's PBS (without Mg^2+ and Ca^2+), 50 μM ATP) per well. Plates were sealed with clear plastic seals, spun at 500×g for 1 min or settled overnight, and counted in Packard TopCount for 30 seconds/well (regular SPA) or imaged using a Viewlux imager (LeadSeeker SPA). Signal above background (EDTA controls) was converted to percent inhibition relative to that obtained in control (DMSO-only) wells.

Turning to `C[C@@H](Oc1cc(-n2cnc3cc(-c4ccc(NC5CCN(C)CC5)nc4)ccc32)sc1C(N)=O)c1ccccc1Cl` [Example 6, 3-{[(1R)-1-(2-Chlorophenyl)ethyl]oxy}-5-(5-{6-[(1-methyl-4-piperidinyl)amino]-3-pyridinyl}-1H-benzimidazol-1-yl)-2-thiophenecarboxamide], the IC50 was less than 100 nM in the data set with HCT-116; 100 to 1000 nM in the data set with P388; less than 100 nM in the data set on SKOV3; less than 100 nM in the data set with Colo 205; less than 100 nM with A549-L; less than 100 nM in the data set on MX-1. Besides, the IC50 in the data set with HT29 is less than 100 nM. The AUC(0-t) (in general, exposure summed from dosing to a finite time, without extrapolation to infinity) in data set [1] was 2780 ng·h/mL. In addition, the clearance in [1] amounted to 18.6 mL/min/kg.

On to `C[C@@H](Oc1cc(-n2cnc3cc(-c4ccnc(N5CCN(C)CC5)c4)ccc32)sc1C(N)=O)c1ccccc1C(F)(F)F` [Example 2, 5-{5-[2-(4-Methyl-1-piperazinyl)-4-pyridinyl]-1H-benzimidazol-1-yl}-3-({(1R)-1-[2-(trifluoromethyl)phenyl]ethyl}oxy)-2-thiophenecarboxamide], for which the IC50 is less than 100 nM in the data set on HCT-116; 100 to 1000 nM in the data set with P388; 100 to 1000 nM in the data set with SKOV3; less than 100 nM with Colo 205; less than 100 nM in the data set with A549-L; less than 100 nM with MX-1. Besides, the IC50 in the data set with HT29 was less than 100 nM. The AUC(0-t) in data set [1] is 2200 ng·h/mL. Also, in [1], the clearance was found to be 32.3 mL/min/kg.

Regarding `C[C@@H](Oc1cc(-n2cnc3cc(-c4ccnc(NC5CCN(C)CC5)c4)ccc32)sc1C(N)=O)c1ccccc1C(F)(F)F` [Example 3, 5-(5-{2-[(1-Methyl-4-piperidinyl)amino]-4-pyridinyl}-1H-benzimidazol-1-yl)-3-({(1R)-1-[2-(trifluoromethyl)phenyl]ethyl}oxy)-2-thiophenecarboxamide], the IC50 in the data set on HCT-116 is less than 100 nM; on PLK1 kinase domain, less than 10 nM; in the data set with P388 it was less than 100 nM; in the data set on SKOV3, less than 100 nM; with Colo 205, less than 100 nM; with A549-L, less than 100 nM. Also, the IC50 with MX-1 and with HT29 was less than 100 nM throughout. For the same molecule, the AUC(0-t) in data set [1] amounted to 1850 ng·h/mL. The clearance in data set [1] came to 35.6 mL/min/kg.

For the origin of these results see patent US20080214563A1, “Benzimidazole Thiophene Compounds As Plk Modulators” (priority 2005, published 2008).
